Measurements as given in publication PMC6142817, “New Urea Derivatives Are Effective Anti-senescence Compounds Acting Most Likely via a Cytokinin-Independent Mechanism” (Frontiers in Plant Science, 2018).
Like-named read-outs stand apart in the source and are kept apart here.

Tests used:
[1] = system: cytokinin-dependent tobacco callus; test: Tobacco callus bioassay; format: cell-based; details: for EC50: Nicotiana tabacum
Description: (§1) Tobacco callus, Amaranthus and Wheat leaf senescence assay (WLSA) were performed as described by Holub et al. ([1998]) including the number of repetitions in each assay. An exception to the published protocols was that the tobacco callus assay was performed in 6-well microtiter plates (with each well containing 3 ml of Murashige Skoog medium into which 0.1 g of callus was added). Each compound was tested at least twice in each assay and in a wider concentration range to obtain concentration-dependent activity curves. IC50 means compound concentration at which chlorophyll degradation is inhibited by 50% and EC50 means half the maximal effective concentration.

Triticum aestivum roots = test: Wheat root elongation assay; format: in vivo; details: 0.1 μM, 14-day-old plants; control 10.4 cm
Description: (§2) Seeds of Triticum aestivum were surface sterilized by washing with 96% ethanol (10 min) and sown in a hydroponic growing system (Araponics, Liege, Belgium) using Hoagland's solution supplemented with either 0.1 μM TDZ, 0.1 μM ASES or 0.01% DMSO (solvent control). The plants were grown in a growth chamber at 25°C with a 16/8 h light period at 130 μM m^−2s^−1. The root lengths of at least 50 plants were measured 2 weeks after the plants had been sown. Seeds of Arabidopsis thaliana (wild-type Col-0) were surface sterilized by the same procedure as seeds of wheat and sown on vertical plates using half-strength Murashige-Skoog medium (supplemented with 0.1% sucrose and 6 g/L phytagel) containing either 0.1 μM TDZ, 0.1 μM ASES or 0.01% DMSO (solvent control). After vernalization (4 days in the dark, 4°C), the plates were transferred into a growth chamber (22°C, 16/8 light/dark, 130 μM m^−2s^−1). Root elongation was scored 2 weeks after the transfer, with measurements from at least 40 plants for each treatment. The whole experiment was repeated twice.

ARR5:GUS reporter gene = test: Arabidopsis ARR5:GUS reporter gene assay; format: in vivo, Arabidopsis thaliana
Description: Transgenic Arabidopsis plants (Arabidopsis thaliana (L.) Heynh. accession Wassilewskija) harboring the GUS reporter gene (gene for β-glucuronidase) fused to 1.6 kb of the ARR5 (PARR5−GUS) gene promoter (D'Agostino et al., [2000]) were kindly provided by professor Thomas Schmülling. The assay was performed according to Romanov et al. ([2002]). β-Glucuronidase (GUS) activity was quantitatively determined by measuring fluorescence of 4-methylumbelliferyl (MU) on a Synergy H4 hybrid reader (Biotek, Winooski, VT) with excitation and emission wavelengths of 365 and 445 nm, respectively. GUS specific activity was determined as nmol MU × mg protein^−1 × h^−1. This was calculated by dividing the relative fluorescence units (obtained per hour) by protein content of the same sample. Protein extraction was done as described by Romanov et al. ([2002]) but its content was determined using a bicinchoninic acid reagent (Smith et al., [1985]). Finally we expressed the GUS activity in samples as a relative percentage, the activity of 1 μM BA being set as 100% activation. The concentration-dependent activity curves and EC50 values (for TDZ, tZ, BA, TD-iP, and TD-tZ) were constructed using Scion image program.

[2] = system: detached Arabidopsis leaves (chlorophyll loss in the dark); test: Arabidopsis leaf senescence assay; format: cell-based, Arabidopsis thaliana; details: for % of the chlorophyll retained: 0.01 μM; for % of the chlorophyll retained / % more of chlorophyll retained than DMSO (negative control): 12 days in the dark; for % more of chlorophyll retained than DMSO (negative control): 1 μM; for times more effective than BA in Arabidopsis leaf senescence assay: compared to the activity of BA in 1 μM
Excerpt: (§3) Amaranthus assay evaluates the induction of betacyanin synthesis in Amaranthus (Amaranthus caudatus var. atropurpurea) cotyledons, which is induced by cytokinins (Bamberger and Mayer, [1960]). The WLSA evaluates the ability of compounds to retard chlorophyll degradation in excised wheat leaves that are kept in the dark. The wheat leaf segments (Triticum aestivum cv. Hereward) were used in all other experiments requiring wheat. Arabidopsis (Arabidopsis thaliana) leaf senescence assay was performed with detached leaves from 30-day-old plants, which were grown in soil in phytotron under standard conditions (Rivero et al., [2014]). Four leaves of a combined weight of 60 mg were placed in a six-well plate and stored in the dark for 12 days at 22°C. The leaves (except the fresh control leaves) floated on water solutions of tested compounds. Fresh control leaves were leaves detached from a plant and immediately used for chlorophyll determination. The duration of the senescence assay of Arabidopsis leaves was prolonged to highlight the difference in chlorophyll content between a negative control and treatments. Arabidopsis leaves were losing chlorophyll more slowly than wheat leaves. Chlorophyll extraction and spectrophotometric determination of its content was done according to Holub et al. ([1998]).

[3] = system: photosystem II complexes in wheat leaves from WLSA; test: Two-dimensional clear-native/SDS electrophoresis of membrane complexes; parameters: species or system Triticum aestivum; details: 10 μM, 5 days in the dark
Description: Leaves from WLSA were frozen at −80°C and then dried overnight by lyophilization at 5°C. Dried material was homogenized by bead-beating (2 × 10 s) with 2.5 mm metal beads (Mini-Beadbeater-16, BioSpec, USA). The resulting powder was mixed with a thylakoid buffer, pH 6.5, containing 25 mM MES, 10 mM MgCl2, 10 mM CaCl2, and 25% glycerol and bead-beaten (4 × 10 s). The obtained cell extract was centrifuged, after which the insoluble fraction was transferred into a new tube and solubilized with 2% dodecyl-β-maltoside for 15 min on ice. The solution was centrifuged at 30,000 × g for 10 min to remove any non-solubilized cell debris and the obtained solubilized membrane proteins were separated by electrophoresis using a 4 to 12% polyacrylamide clear native gel (Wittig et al., [2007]). Individual components of protein complexes were resolved by incubating the gel strip from the first electrophoresis in 2% SDS and 1% dithiothreitol for 30 min at room temperature, after which the proteins were separated in a second dimension by SDS-electrophoresis using a denaturing 12 to 20% polyacrylamide gel containing 7 M urea (Dobáková et al., [2009]). Proteins were stained with Coomassie Brilliant Blue, and individual protein components were identified by comparing the protein pattern with previously published results (Pagliano et al., [2012]).

[4] = system: Amaranthus caudatus cotyledon-hypocotyl explants; test: Amaranthus bioassay (betacyanin synthesis); format: cell-based, Amaranthus caudatus var. atropurpurea; details: for EC50: Amaranthus caudatus
Description: as §1, §3

[5] = system: Arabidopsis thaliana roots; test: Arabidopsis root elongation assay; format: in vivo, Arabidopsis thaliana (wild-type Col-0); details: 0.1 μM, 14 days; for Arabidopsis root growth (length): control 3.5 cm
Description: as §2

[6] = system: excised wheat leaves (chlorophyll degradation in the dark); test: Wheat leaf senescence assay (WLSA); format: cell-based, Triticum aestivum cv. Hereward; details: for Chlorophyll content (% of the fresh control): 5 days in the dark, DMSO control = 0; for chlorophyll remaining, % of the initial chlorophyll: 21 days after leaf detachment, dark; for IC50: Triticum aestivum, 120 h
Description: as §1, §3

Compound | wheat root length (Triticum aestivum roots) | % of the chlorophyll retained [2] | % more of chlorophyll retained than DMSO (negative control) [2] | times more effective than BA in Arabidopsis leaf senescence assay [2] | level of PSII-LHCII supercomplexes [3] | Arabidopsis root growth (length) [5] | Chlorophyll content (% of the fresh control) ([6]; 0.01 μM) | Chlorophyll content (% of the fresh control) ([6]; 0.1 μM) | Chlorophyll content (% of the fresh control) ([6]; 1 μM) | Chlorophyll content (% of the fresh control) ([6]; 10 μM) | chlorophyll remaining, % of the initial chlorophyll ([6]; 10 μM) | Chlorophyll content (% of the fresh control) ([6]; 100 μM) | also measured
COCCNC(=O)Nc1cnns1 [ASES, 1-(2-methoxy-ethyl)-3-1,2,3-thiadiazol-5-yl-urea] | 11.0 cm | more than 55% | 96% | approximately 100 times | even higher level of PSII-LHCII supercomplexes than we observed for fresh control | 4.2 cm | 8 (±4) % | 25 (±7) % | 51 (±8) % | 79 (±8) % | ~50% | 98 (±7) % | cell division stimulatory effect, times lower than that of TDZ [1]: more than 700 times; EC50 ([1]; half the maximal effective concentration, N.A. = not active, read-out: Tobacco callus bioassay (EC50)): 0.68 µM; Tobacco callus bioassay (EC50, μM) ([1]; half the maximal effective concentration, N.A. = not active): sub-micromolar range; ARR5:GUS activity, % of BA activity (ARR5:GUS reporter gene; compound at 10 μM, 1 μM BA = 100%): 55–65%; membrane complexes / level of dimeric PSII in senescent leaves [3]: very similar to those of the fresh control, including high levels of dimeric PSII; fold lower potency than BA in inducing betacyanin [4]: ~5 fold; fold lower potency than TDZ in inducing betacyanin [4]: approximately 1,000 fold; EC50 ([4]; betacyanin synthesis, N.A. = not active, read-out: Amaranthus bioassay (EC50)): 4 µM; IC50 ([6]; detached wheat leaves in the dark, 5 days, concentration at which chlorophyll degradation is inhibited by 50%, read-out: Senescence bioassay (IC50)): 0.95 µM; times more effective than TDZ in WLSA ([6]; ratio of IC50 values): approximately 13 times
O=C(Nc1ccccc1)Nc1cnns1 [TDZ, 1-phenyl-3-(1,2,3-thiadiazol-5-yl)urea, reference compound] | 3.2 cm | more than 55% | 85% | approximately 100 times | completely lost | 1.7 cm | 8 (±2) % | 18 (±5) % | 34 (±7) % | 50 (±11) % | approximately 15% | 91 (±2) % | EC50 ([1]; read-out: Tobacco callus bioassay (EC50, μM)): 0.001 µM; EC50 (ARR5:GUS reporter gene; Arabidopsis thaliana, read-out: ARR5:GUS activation EC50): 4 nM; activity in Amaranthus assay, fold exceeding all other cytokinins [4]: at least 100 fold; EC50 ([4]; read-out: Amaranthus bioassay (EC50, μM)): 0.004 µM; reduction of Arabidopsis root growth compared to the control [5]: 50%; IC50 ([6]; read-out: Senescence bioassay (IC50, μM)): 13 µM
